Data published in patent US5756478A, “Method for reducing toxicity of D-nucleoside analogs with L-nucleosides” (priority 1996, dated 1998).
Where “and” joins values, the source holds several entries; their conditions need not be identical. Equal entries are not always repeated. Entries after “also recorded” stand apart in the source; their conditions may differ. Where two headings read alike, the source gives them in different places.

Legend:
Assay type in all cases: cell-based
[1] = test system: HIV-1IIIB; experiment: Anti-HIV activity: protection of MT-2 cells infected with HIV-1IIIB (MTT-dye reduction); settings: Human immunodeficiency virus 1, MT2, 120 h
Procedure: (§1) The following anti-HIV drugs were tested in combination with the L-nucleosides β-L-5-fluoro-2',b 3'-dideoxycytidine [β-L-FddC or L(-)FddC], β-L-5-fluoro-2',3'-dideoxy-2',3'-didehydrocytidine [β-L-Fd4C or L(-)Fd4C], β-L-5-fluoro-2',3'-dideoxy-3'-thiacytidine [L(-)FTC] and β-L-2',3'-dideoxy-3'-thiacytidine [L(-)SddC or 3TC]: 3'-azido-3'deoxythymidine (AZT) as well as the β-D-2',3'-dideoxynucleosides, for example, β-D-2',3'-dideoxycytidine (ddC), β-D-2',3'-dideoxyadenosine, β-D-2',3'-dideoxyinosine (DDI) and β-D-2',3'-didehydro-3'-deoxy-thymidine (D4T). β-L-FddC and β-L-Fd4C was obtained following the method of Lin, et al., J. Med. Chem., 37, no. 6 (1994). L(-)FTC and L(-)SddC were prepared by standard literature procedures. See, for example, Jeong, et al. J. Med. Chem., 36, 181 (1993). AZT was obtained from Sigma Chemical Co., St. Louis, Mo., USA. ddC was obtained from Aldrich Chemical Co., Milwaukke, Wis. USA. DDI and D4T were obtained from Bristol-Myers Co., Wallingford, Conn., USA.
(§2) The above-mentioned drugs were tested using MT-2 cells infected with HIV-1IIIB as described by JW Mellers, et al., Molecular Pharm. 41, 446-451 (1991) with some modification. Briefly, triplicate wells of 96-well plates containing 1×10^4 MT-2 cells were infected with HIV-1IIIB at a multiplicity of infection (MOI) of 0.1 TCID50 per cell (TCID50 - 50% tissue culture infective dose). Serial dilutions of drug were added immediately after infection. Cell viability was quantitated 5 days after infection by the MTT-dye reduction model (Larder, et al. Antimicrob. Agents Chemother. 34, 436-441, 1990). The percentage of protection was calculated with the formula [(a-b/c-b)×100], in which a=the A595 of drug-treated, virus-infected well, b=A595 of no-drug infected wells, and c=A595 of no-drug, uninfected wells.

[2] = test system: CEM, a Human T-type lymphoblast tumor cell line; experiment: Cell growth inhibition of CEM cells by D-nucleosides with or without L-nucleosides
Text: CEM, a Human T-type lymphoblast tumor cell line was used for this study. […] At the end of four days after the addition of the drug, the cell number was estimated by hemocytometer. […] The data, presented below in Table 1-3, are normalized against the control. The parenthetical values represent the expected effect the combined agents should have on cell growth.

[3] = test system: HIV-1IIIB; experiment: Anti-HIV combination of D- and L-nucleosides in HIV-1IIIB infected MT-2 cells (isobolograms); settings: for Nature of the anti-HIV combination effect with L-nucleosides (ID50): D-nucleoside co-administered with β-L-FddC, L(-)FTC, L(-)SddC or β-L-Fd4C
Procedure: as §1, §2
Isobolograms (FIGS. 1-2) were plotted as the percent change in the ID50 of β-L-FddC (L(-)FddC), L(-)FTC, L(-)SddC (FIGS. 1 and 2) β-L-Fd4C (L(-)Fd4C) at various concentrations in combination with AZT, D4T, ddC or DDI at varying concentations on the x-axis and vice versa on the y-axis. Isobolograms (FIG. 3) were plotted as the percent change in the ID50 of β-L-Fd4C (L(-)Fd4C) at various concentrations in combination with AZT or D4T at varying concentrations on the x-axis and vice-versa on the y-axis.

[4] = MT-2 cells, HIV-1IIIB, MOI 0.1 TCID50 per cell, 5 days, read-out: ID50 (the source's name)
[5] = 50 uM, in combination with 1 uM 3TC
[6] = 50 uM, in combination with 1 uM (-) FTC
[7] = 50 uM, in combination with 1 uM β-L-FddC
[8] = Homo sapiens, CCRF-CEM, 96 h, single agent, 50 uM, day 4, read-out: Day 4 Cell Growth - % of Control

With O=c1[nH]cnc2c1ncn2C1CCC(CO)O1 [DDI, β-D-2',3'-dideoxyinosine] the IC50 [1, 4] was 20000 nM, the “Day 4 Cell Growth - % of Control” value [2, 5] was 89 % of Control and the “Day 4 Cell Growth - % of Control” value [2, 6] was 84 % of Control. For the same compound, the “Day 4 Cell Growth - % of Control” value [2, 7] was 84 % of Control, the “Day 4 Cell Growth - % of Control” value ([2]; 100 uM, in combination with 1 uM 3TC) was 87 % of Control and the “Day 4 Cell Growth - % of Control” value ([2]; 100 uM, in combination with 1 uM (-) FTC) was 80 % of Control. The “Day 4 Cell Growth - % of Control” value ([2]; 100 uM, in combination with 1 uM β-L-FddC) was 80 % of Control, the “Day 4 Cell Growth - % of Control” value ([2]; 200 uM, in combination with 1 uM 3TC) was 80 % of Control and the “Day 4 Cell Growth - % of Control” value ([2]; 200 uM, in combination with 1 uM (-) FTC) was 75 % of Control. The “Day 4 Cell Growth - % of Control” value ([2]; 200 uM, in combination with 1 uM β-L-FddC) was 75 % of Control, the activity at 50 µM [2, 8] was 88% and the activity at 100 µM ([2]; Homo sapiens, CCRF-CEM, 96 h, single agent, 100 uM, day 4, read-out: Day 4 Cell Growth - % of Control) was 85%. The activity at 200 µM ([2]; Homo sapiens, CCRF-CEM, 96 h, single agent, 200 uM, day 4, read-out: Day 4 Cell Growth - % of Control) was 78%, the “Day 4 Cell Growth - % of Control, expected effect of the combined agents (parenthetical)” value (“Day 4 Cell Growth - % … (parenthetical)” for short) ([2]; 50 uM with 1 uM (-) FTC) was 74 % of Control and the “Day 4 Cell Growth - % … (parenthetical)” value ([2]; 50 uM with 1 uM β-L-FddC) was 74 % of Control. The “Day 4 Cell Growth - % … (parenthetical)” value ([2]; 100 uM with 1 uM (-) FTC) was 71 % of Control, the “Day 4 Cell Growth - % … (parenthetical)” value ([2]; 100 uM with 1 uM β-L-FddC) was 71 % of Control and the “Day 4 Cell Growth - % … (parenthetical)” value ([2]; 200 uM with 1 uM (-) FTC) was 65 % of Control. The “Day 4 Cell Growth - % … (parenthetical)” value ([2]; 200 uM with 1 uM β-L-FddC) was 65 % of Control, the “Day 4 Cell Growth - % of Control” value ([2]; single agent, 50 uM, 5760 min) was 94 % of Control and the “Day 4 Cell Growth - % of Control” value ([2]; single agent, 100 uM, 5760 min) was 89 % of Control. The “Day 4 Cell Growth - % of Control” value ([2]; single agent, 200 uM, 5760 min) was 79 % of Control and the “Nature of the anti-HIV combination effect with L-nucleosides (ID50)” value (“Nature” below) [3] was “additively; also recorded: additive”.
For Nc1ccn(C2CCC(CO)O2)c(=O)n1 [ddC, β-D-2',3'-dideoxycytidine], the IC50 [1, 4] was 600 nM, the “Day 4 Cell Growth - % of Control” value ([2]; 0.01 uM, in combination with 1 uM 3TC) was 86 % of Control and the “Day 4 Cell Growth - % of Control” value ([2]; 0.01 uM, in combination with 1 uM (-) FTC) was 91 % of Control. The “Day 4 Cell Growth - % of Control” value ([2]; 0.01 uM, in combination with 1 uM β-L-FddC) was 88 % of Control, the “Day 4 Cell Growth - % of Control” value ([2]; 0.1 uM, in combination with 1 uM 3TC) was 83 % of Control and the “Day 4 Cell Growth - % of Control” value ([2]; 0.1 uM, in combination with 1 uM (-) FTC) was 87 % of Control. For the same compound, the “Day 4 Cell Growth - % of Control” value ([2]; 0.1 uM, in combination with 1 uM β-L-FddC) was 84 % of Control, the “Day 4 Cell Growth - % of Control” value ([2]; 1.0 uM, in combination with 1 uM 3TC) was 67 % of Control and the “Day 4 Cell Growth - % of Control” value ([2]; 1.0 uM, in combination with 1 uM (-) FTC) was 69 % of Control. The “Day 4 Cell Growth - % of Control” value ([2]; 1.0 uM, in combination with 1 uM β-L-FddC) was 76 % of Control, the activity at 0.01 µM ([2]; Homo sapiens, CCRF-CEM, 96 h, single agent, 0.01 uM, day 4, read-out: Day 4 Cell Growth - % of Control) was 92% and the activity at 0.1 µM ([2]; Homo sapiens, CCRF-CEM, 96 h, single agent, 0.1 uM, day 4, read-out: Day 4 Cell Growth - % of Control) was 80%. The activity at 1 µM ([2]; Homo sapiens, CCRF-CEM, 96 h, single agent, 1.0 uM, day 4, read-out: Day 4 Cell Growth - % of Control) was 70%, the “Day 4 Cell Growth - % … (parenthetical)” value ([2]; 0.01 uM with 1 uM β-L-FddC) was 78 % of Control and the “Day 4 Cell Growth - % … (parenthetical)” value ([2]; 0.1 uM with 1 uM β-L-FddC) was 78 % of Control. For the same compound, the “Day 4 Cell Growth - % … (parenthetical)” value ([2]; 1.0 uM with 1 uM β-L-FddC) was 66 % of Control, the “Day 4 Cell Growth - % of Control” value ([2]; single agent, 0.01 uM, 5760 min) was 89 % of Control and 93 % of Control and the “Day 4 Cell Growth - % of Control” value ([2]; single agent, 0.1 uM, 5760 min) was 83 % of Control and 93 % of Control. For the same compound, the “Day 4 Cell Growth - % of Control” value ([2]; single agent, 1.0 uM, 5760 min) was 65 % of Control and 79 % of Control and the “Nature” value [3] was “additively; also recorded: additive”.
In the case of Cc1cn([C@H]2C[C@H](N=[N+]=[N-])[C@@H](CO)O2)c(=O)[nH]c1=O [AZT, 3'-azido-3'deoxythymidine], the IC50 ([1]; read-out: ID50) is reported as 90 nM, the “Day 4 Cell Growth - % of Control” value ([2]; 0.5 uM, in combination with 1 uM 3TC) is reported as 83 % of Control and the “Day 4 Cell Growth - % of Control” value ([2]; 0.5 uM, in combination with 1 uM (-) FTC) is reported as 87 % of Control. For the same compound, the “Day 4 Cell Growth - % of Control” value ([2]; 0.5 uM, in combination with 1 uM β-L-FddC) was 80 % of Control, the “Day 4 Cell Growth - % of Control” value ([2]; 5.0 uM, in combination with 1 uM 3TC) was 76 % of Control and the “Day 4 Cell Growth - % of Control” value ([2]; 5.0 uM, in combination with 1 uM (-) FTC) was 83 % of Control. The “Day 4 Cell Growth - % of Control” value ([2]; 5.0 uM, in combination with 1 uM β-L-FddC) was 79 % of Control, the “Day 4 Cell Growth - % of Control” value [2, 5] was 70 % of Control and the “Day 4 Cell Growth - % of Control” value [2, 6] was 64 % of Control. The “Day 4 Cell Growth - % of Control” value [2, 7] was 75 % of Control, the activity at 0.5 µM ([2]; Homo sapiens, CCRF-CEM, 96 h, single agent, 0.5 uM, day 4, read-out: Day 4 Cell Growth - % of Control) was 91% and the activity at 5 µM ([2]; Homo sapiens, CCRF-CEM, 96 h, single agent, 5.0 uM, day 4, read-out: Day 4 Cell Growth - % of Control) was 89%. The activity at 50 µM [2, 8] was 74%, the “Day 4 Cell Growth - % … (parenthetical)” value ([2]; 0.5 uM with 1 uM β-L-FddC) was 76 % of Control and the “Day 4 Cell Growth - % … (parenthetical)” value ([2]; 5.0 uM with 1 uM β-L-FddC) was 75 % of Control. The “Day 4 Cell Growth - % … (parenthetical)” value ([2]; 50 uM with 1 uM β-L-FddC) was 62 % of Control, the “Day 4 Cell Growth - % of Control” value ([2]; single agent, 0.5 uM, 5760 min) was 82 % of Control and 85 % of Control and the “Day 4 Cell Growth - % of Control” value ([2]; single agent, 5.0 uM, 5760 min) was 79 % of Control. The “Day 4 Cell Growth - % of Control” value ([2]; single agent, 50 uM, 5760 min) was 72 % of Control and the “Nature” value [3] was “synergistically; also recorded: synergistic”.
In the case of Nc1nc(=O)n([C@@H]2C=C[C@H](CO)O2)cc1F [β-L-Fd4C, β-L-5-fluoro-2',3'-dideoxy-2',3'-didehydrocytidine], the IC50 [1, 4] is reported as 90 nM and the “Effect of L-nucleoside on ID50 of co-administered D-nucleoside” value ([3]; with AZT, D4T, ddC or DDI) is reported as “reduces the ID50 value of AZT, ddC, DDI and D4T; also recorded: decreases the ID50 of a co-administered D-nucleoside and vice versa”.
